Laboratory results from publication PMC9105102, “Development and Biochemical Characterization of Self-Immolative Linker Containing GnRH-III-Drug Conjugates” (International Journal of Molecular Sciences, 2022).

How the values were obtained:
[1] = Solubility in acidic aqueous buffer (remark); format: physicochemical; conditions: compared with the ΔHis-D-Tic compounds
[2] = Degradation of drug conjugates in presence of rat liver lysosomal homogenate (LC-MS); format: in vitro ADME; conditions: pH 5, 37 °C; for release of free Dau by lysosomal enzymes: up to 24 h
Description: The preparation of the rat liver lysosomal homogenate was carried out as recently reported. A Qubit Protein Assay Kit (Thermo Fischer Scientific, Waltham, MA, USA) was used to examine the concentration of the lysosomal proteins.
Initially, a stock solution of the GnRH-III-Dau conjugates in water (5 µg/µL) was prepared. For the degradation reaction, the conjugates and the lysosomal homogenate were diluted together in 0.2 M NaOAc buffer (pH 5) to a concentration of 0.25 µg/µL each. These mixtures were kept at 37 °C and at distinct time points (5 min, 1 h, 2 h, 4 h, 8 h and 24 h), 15 µL of each sample were quenched with 2 µL acetic acid and analyzed by LC-MS (System I).
The GnRH-III-PTX conjugates were dissolved in DMSO to a concentration of 10 mM. The reaction was carried out in 0.2 M NaOAc buffer (pH 5) with 10 µM conjugate and 0.025 µg/mL lysosomal homogenate. The reaction mixtures were incubated at 37 °C and aliquots of 60 μL were taken at 5 min, 1 h, 2 h, 4 h, 8 h and 24 h and quenched with 5 μL of acetic acid. The analysis of the samples was performed by LC–MS (System-II).

[3] = target: T1, GnRH-R (membranes of human pituitary) (Homo sapiens, UniProt P30968); assay: Radioligand competition assay, displacement of [125I]-GnRH-I-[6D-Trp] (triptorelin), human pituitary membranes; format: binding
T1 construct: GnRH-Rs expressed on human pituitary and human prostate cancer cells; from tissue; host or cells: normal human pituitary (anterior lobe), autopsy; membrane homogenate
T1 sequence (P30968 1-328): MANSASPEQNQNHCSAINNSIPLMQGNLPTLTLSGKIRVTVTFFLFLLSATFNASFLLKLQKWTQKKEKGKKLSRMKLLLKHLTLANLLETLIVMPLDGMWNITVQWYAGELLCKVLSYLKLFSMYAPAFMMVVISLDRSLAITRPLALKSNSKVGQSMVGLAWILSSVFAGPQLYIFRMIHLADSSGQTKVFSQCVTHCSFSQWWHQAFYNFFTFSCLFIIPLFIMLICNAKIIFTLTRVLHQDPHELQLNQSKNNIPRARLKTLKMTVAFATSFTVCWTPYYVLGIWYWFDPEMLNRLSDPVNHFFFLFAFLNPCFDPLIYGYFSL
Description: (§1) A ligand competition assay with [^125I]-GnRH-I-[^6D-Trp] as radioligand was performed to examine the binding affinity of the GnRH-III-drug conjugates to GnRH-Rs expressed on human pituitary and human prostate cancer cells. Human prostate cancer cells were derived from patients at the time of initial surgical treatment, while tissue samples from normal human pituitary (anterior lobe) were obtained by autopsy. All subjects were informed and gave their consent for inclusion before they participated in the study. The preparation of the cell membranes was carried out according to the literature. The chloramines-T method was used to prepare radioiodinated GnRH-I agonist triptorelin which was purified by RP-HPLC [10, 38, 39, 47]. The displacement of [^125I]-GnRH-I-[^6D-Trp] was studied in an in vitro ligand competition assay to determine the binding affinities of the non-radio-labeled GnRH-III bioconjugates to GnRH-RI [10, 11, 38, 39]. Membrane homogenates containing […] protein were incubated in duplicate or triplicate with 60–80,000 cpm [^125I]-GnRH-I-[^6D-Trp] and rising concentration (1 pM—1 µM) of nonradioactive bioconjugates as competitors in a total volume of […] binding buffer. Protein concentration was determined by the method of Bradford using a Bio-Rad protein assay kit (Bio-Rad Laboratories, Hercules, CA, USA). The LIGAND-PC computerized curve-fitting program of Munson and Rodbard was used to determine the receptor binding characteristics and IC50 values.

[4] = system: Panc-1 human pancreatic cancer cells; assay: cells; format: cell-based; conditions: Panc-1 cells; treatment 24 h (Dau conjugates) or 6 h (PTX compounds), viability at 72 h; mean ± SE of two to three determinations; read-out: Panc-1 IC50
Description: (§2) For cultivation of A2780 human ovarian and Panc-1 human pancreatic cancer cells, RPMI-1640 medium with 10% FBS, L-glutamine and 1% Penicillin-Streptomycin were used. Cells were cultured in appropriate plastic flasks at 37 °C (humidified atmosphere, 5% CO2/95% air).
(§3) A set-up of 96-well plates was used to study the in vitro antiproliferative activity. Therefore, 5 × 10^3 cells in 100 µL complete medium were seeded to each well. After 24 h, complete medium was removed and cells were treated with 200 µL bioconjugate solution in serum-free medium (concentration range 0.0032–50 µM, control wells were treated with serum-free medium). Medium was taken out after 6 h treatment (PTX conjugates) or 24 h (Dau conjugates), replaced by complete medium and incubation was continued. To determine the cell viability, medium was removed after 72 h and 100 µL resazurin solution [45] (10% Tox-8 in FBS-free medium) was added to each well, followed by additional incubation of 2–3 h. A Tecan infinite 200 pro microplate reader (Tecan Group Ltd., Zürich, Switzerland) was used for fluorescence detection (λEx = 560 and λEm = 590 nm). Experiments were performed at least twice, using three parallels per concentration. The cell viability (and IC50 values) was calculated with GraphPad Prism using a nonlinear regression (sigmoidal dose-response).

[5] = system: A2780 human ovarian cancer cells; assay: cells; format: cell-based; conditions: A2780 cells; treatment 24 h (Dau conjugates) or 6 h (PTX compounds), viability at 72 h; mean ± SE of two to three determinations; read-out: A2780 IC50
Description: as §2, §3

[6] = target: T2, GnRH-R (membranes of human prostate cancer specimens) (Homo sapiens, UniProt P30968); assay: Radioligand competition assay, displacement of [125I]-GnRH-I-[6D-Trp] (triptorelin), human prostate cancer membranes; conditions: mean ± SE of two to three determinations, read-out: IC50 Prostate Cancer, competitive inhibition of [125I][6D-Trp]-GnRH-I binding
T2 construct: GnRH-Rs expressed on human pituitary and human prostate cancer cells; from tissue; host or cells: human prostate cancer specimens from patients (surgery); membrane homogenate
T2 sequence (P30968 1-328): T1 sequence (P30968 1-328)
Description: as §1

Row | Structure (SMILES) | solubility in acidic aqueous buffer [1] | release of free Dau by lysosomal enzymes ([2]; LC-MS) | IC50 [3] [nM] | IC50 [4] [µM] | IC50 [5] [µM] | IC50 [6] [nM] | release of the smallest Dau-containing metabolite H-Lys(Dau-glutaryl)-OH ([2]; LC-MS) | detection of the diamine-PTX fragment ([2]; after 5 min of incubation) | release of the free PTX ([2]; within 24 h) | detection of the diamine-PTX fragment ([2]; even after 24 h of incubation)
1 | CCCC(=O)NCCCC[C@H](NC(=O)[C@H](Cc1c[nH]c2ccccc12)NC(=O)[C@H](Cc1c[nH]cn1)NC(=O)[C@@H]1CCC(=O)N1)C(=O)N[C@@H](Cc1c[nH]cn1)C(=O)N[C@@H](CC(=O)O)C(=O)N[C@@H](Cc1c[nH]c2ccccc12)C(=O)N[C@@H](CCCCNC(=O)CCCC(=O)N[C@H](C(=O)N[C@@H](CCCNC(N)=O)C(=O)Nc1ccc(COC(=O)N[C@H]2C[C@H](O[C@H]3C[C@](O)(C(C)=O)Cc4c(O)c5c(c(O)c43)C(=O)c3c(OC)cccc3C5=O)O[C@@H](C)[C@H]2O)cc1)C(C)C)C(=O)N1CCC[C@H]1C(=O)NCC(N)=O [compound 10] | better solubility | release of free Dau and the formation of several peptide fragments could be confirmed | 16.1 ± 2.03 | 85.6 ± 24.3 | 11.2 ± 0.38 | 13.7 ± 1.87 |  |  |  | 
2 | CCCC(=O)NCCCC[C@H](NC(=O)[C@H]1Cc2ccccc2CN1C(=O)[C@@H]1CCC(=O)N1)C(=O)N[C@@H](Cc1c[nH]cn1)C(=O)N[C@@H](CC(=O)O)C(=O)N[C@@H](Cc1c[nH]c2ccccc12)C(=O)N[C@@H](CCCCNC(=O)CCCC(=O)N[C@H]1C[C@H](O[C@H]2C[C@](O)(C(C)=O)Cc3c(O)c4c(c(O)c32)C(=O)c2c(OC)cccc2C4=O)O[C@@H](C)[C@H]1O)C(=O)N1CCC[C@H]1C(=O)NCC(N)=O [compound 24] |  | free Dau could not be detected | 36.3 ± 3.17 | > 100 | 48.14 ± 0.47 | 42.7 ± 7.04 | confirming the release |  |  | 
3 | CCCC(=O)NCCCC[C@H](NC(=O)[C@H](Cc1c[nH]c2ccccc12)NC(=O)[C@H](Cc1c[nH]cn1)NC(=O)[C@@H]1CCC(=O)N1)C(=O)N[C@@H](Cc1c[nH]cn1)C(=O)N[C@@H](CC(=O)O)C(=O)N[C@@H](Cc1c[nH]c2ccccc12)C(=O)N[C@@H](CCCCNC(=O)CCCC(=O)N[C@H](C(=O)N[C@@H](C)C(=O)Nc1ccc(COC(=O)N[C@H]2C[C@H](O[C@H]3C[C@](O)(C(C)=O)Cc4c(O)c5c(c(O)c43)C(=O)c3c(OC)cccc3C5=O)O[C@@H](C)[C@H]2O)cc1)C(C)C)C(=O)N1CCC[C@H]1C(=O)NCC(N)=O [compound 12] | better solubility | release of free Dau and the formation of several peptide fragments could be confirmed | 17 ± 1.04 | 56.2 ± 17.3 | 7.48 ± 0.66 | 15.5 ± 0.83 |  |  |  | 
4 | CCCC(=O)NCCCC[C@H](NC(=O)[C@H](Cc1c[nH]c2ccccc12)NC(=O)[C@H](Cc1c[nH]cn1)NC(=O)[C@@H]1CCC(=O)N1)C(=O)N[C@@H](Cc1c[nH]cn1)C(=O)N[C@@H](CC(=O)O)C(=O)N[C@@H](Cc1c[nH]c2ccccc12)C(=O)N[C@@H](CCCCNC(=O)CCCC(=O)N[C@H](C(=O)N[C@@H](CCCNC(N)=O)C(=O)Nc1ccc(COC(=O)N(C)CCN(C)C(=O)O[C@@H](C(=O)O[C@H]2C[C@@]3(O)[C@@H](OC(=O)c4ccccc4)[C@@H]4[C@]5(OC(C)=O)CO[C@@H]5C[C@H](O)[C@@]4(C)C(=O)[C@H](OC(C)=O)C(=C2C)C3(C)C)[C@@H](NC(=O)c2ccccc2)c2ccccc2)cc1)C(C)C)C(=O)N1CCC[C@H]1C(=O)NCC(N)=O [compound 14] |  |  | 10.5 ± 2.01 | 5.03 ± 1.91 | 0.67 ± 0.07 | 10.7 ± 1.82 |  | could be already detected | could not be detected | 
5 | CCCC(=O)NCCCC[C@H](NC(=O)[C@H]1Cc2ccccc2CN1C(=O)[C@@H]1CCC(=O)N1)C(=O)N[C@@H](Cc1c[nH]cn1)C(=O)N[C@@H](CC(=O)O)C(=O)N[C@@H](Cc1c[nH]c2ccccc12)C(=O)N[C@@H](CCCCNC(=O)CCCC(=O)N(C)CCN(C)C(=O)O[C@@H](C(=O)O[C@H]1C[C@@]2(O)[C@@H](OC(=O)c3ccccc3)[C@@H]3[C@]4(OC(C)=O)CO[C@@H]4C[C@H](O)[C@@]3(C)C(=O)[C@H](OC(C)=O)C(=C1C)C2(C)C)[C@@H](NC(=O)c1ccccc1)c1ccccc1)C(=O)N1CCC[C@H]1C(=O)NCC(N)=O [compound 26] |  |  | 23.4 ± 1.67 | > 100 | > 100 | 22.2 ± 0.96 |  |  |  | could not be detected
